Reference: PubChem BioAssay AID248 (DTP/NCI, 2004)
Inconclusive results and toxic doses are left out. Numbered stars: 1 amine (or outer) side, 2 acyl side, 3 side chain; on linkers, the order of the positions; unused ones are H or OH. Bridge positions count the residues as written; N and C are the ends. Square brackets hold non-standard residues; d marks the D form. Peptide text beside a SMILES is read from it. I, II: the chains in the order shown. Actinocin(1to9) = Cc1c2oc3c(C)ccc(C(=O)[*:2])c3nc-2c(C(=O)[*:1])c(N)c1=O; NMeV = CN[CH](C(=O)O)C(C)C; Sar = CNCC(=O)O

Test system: L1210 leukemia ip in BDF1 mice, survival T/C
Experiment: NCI In Vivo Anticancer Drug Screen. Data for tumor model L1210 Leukemia (intraperitoneal) in B6D2F1 (BDF1) mice
Details: higher = longer survival
In short: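 Tumor was transplanted into mice, which were then dosed with test compound or vehicle alone. Survival was recorded for each group, and the treated figure was expressed relative to the control figure.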

[1] = endpoint: mean survival time, dose: 100.0 mg/kg/injection, schedule: Q04DX003 (ip), vehicle: Klucel (hydroxypropylcellulose) (HPC)
[2] = endpoint: mean survival time, dose: 200.0 mg/kg/injection, schedule: Q04DX003 (ip), vehicle: Klucel (hydroxypropylcellulose) (HPC)
[3] = endpoint: mean survival time, dose: 400.0 mg/kg/injection, schedule: Q04DX003 (ip), vehicle: Klucel (hydroxypropylcellulose) (HPC)
[4] = endpoint: mean survival time, dose: 100.0 mg/kg/injection, schedule: Q04DX003 (ip), vehicle: saline with Tween-80
[5] = endpoint: mean survival time, dose: 200.0 mg/kg/injection, schedule: Q04DX003 (ip), vehicle: saline with Tween-80
[6] = endpoint: mean survival time, dose: 400.0 mg/kg/injection, schedule: Q04DX003 (ip), vehicle: saline with Tween-80

With `CCC(C)C1NC(=O)C(NC(=O)c2c3nc4c(C(=O)NC5C(=O)NC(C(C)CC)C(=O)N6CCCC6C(=O)N(C)CC(=O)N(C)C(C(C)C)C(=O)OC5C)ccc(C)c4oc-3c(C)c(=O)c2N)C(C)OC(=O)C(C(C)C)N(C)C(=O)CN(C)C(=O)C2CCCN2C1=O` (centres undefined) (I: TIP[Sar][NMeV] / II: TIP[Sar][NMeV]; ester I:1-I:C, II:1-II:C; linker I:N-II:N via Actinocin(1to9); configuration not given here) as the molecule, how does the T/C (endpoint: mean survival time, dose: 0.1 mg/kg/injection, schedule: Q01DX009 (ip), vehicle: saline) read?
The T/C was 170 % of control.

And the T/C (endpoint: mean survival time, dose: 0.4 mg/kg/injection, schedule: Q01DX009 (ip), vehicle: saline)?
The T/C was 86 % of control.

What about the T/C (endpoint: mean survival time, dose: 2.5 micrograms/kg/injection, schedule: Q01DX009 (ip), vehicle: saline) of the same molecule?
Its T/C is 115 % of control.

What about the T/C (endpoint: mean survival time, dose: 3.1 micrograms/kg/injection, schedule: Q01DX001 (ip), vehicle: saline) of the same molecule?
Its T/C is 106 % of control.

What about the T/C (endpoint: mean survival time, dose: 6.0 micrograms/kg/injection, schedule: Q01DX009 (ip), vehicle: saline) of the same molecule?
The T/C was 122 % of control.

What about the T/C (endpoint: mean survival time, dose: 6.3 micrograms/kg/injection, schedule: Q01DX001 (ip), vehicle: saline) of the same molecule?
Its T/C is 102 % of control.

What about the T/C (endpoint: mean survival time, dose: 10.0 micrograms/kg/injection, schedule: Q01DX009 (ip), vehicle: saline) of the same molecule?
Its T/C is 118 % of control.

And the T/C (endpoint: mean survival time, dose: 12.5 micrograms/kg/injection, schedule: Q01DX001 (ip), vehicle: saline)?
Its T/C is 102 % of control.

And the T/C (endpoint: mean survival time, dose: 12.5 micrograms/kg/injection, schedule: Q01DX009 (ip), vehicle: saline)?
Its T/C is 122 % of control.

And the T/C (endpoint: mean survival time, dose: 25.0 micrograms/kg/injection, schedule: Q01DX001 (ip), vehicle: saline)?
The T/C was 114 % of control.

And the T/C (endpoint: mean survival time, dose: 50.0 micrograms/kg/injection, schedule: Q01DX001 (ip), vehicle: saline)?
Its T/C is 102 % of control.

And the T/C (endpoint: mean survival time, dose: 50.0 micrograms/kg/injection, schedule: Q01DX009 (ip), vehicle: saline)?
Its T/C is 150 % of control.

What about the T/C (endpoint: mean survival time, dose: 59.4 micrograms/kg/injection, schedule: Q01DX009 (ip), vehicle: acetone) of the same molecule?
The T/C was 160 % of control.

And the T/C (endpoint: mean survival time, dose: 90.0 micrograms/kg/injection, schedule: Q01DX009 (ip), vehicle: acetone)?
The T/C was 102 % of control.

And the T/C (endpoint: mean survival time, dose: 100.0 micrograms/kg/injection, schedule: Q01DX001 (ip), vehicle: saline)?
Its T/C is 111 % of control.

And the T/C (endpoint: mean survival time, dose: 135.0 micrograms/kg/injection, schedule: Q01DX009 (ip), vehicle: acetone)?
Its T/C is 104 % of control.

And the T/C (endpoint: mean survival time, dose: 200.0 micrograms/kg/injection, schedule: Q01DX001 (ip), vehicle: saline)?
The T/C was 117 % of control.

What about the T/C (endpoint: median survival time, dose: 12.5 micrograms/kg/injection, schedule: Q01DX009 (ip), vehicle: water) of the same molecule?
The T/C was 113 % of control.

And the T/C (endpoint: median survival time, dose: 25.0 micrograms/kg/injection, schedule: Q01DX009 (ip), vehicle: water)?
Its T/C is 117 % of control.

What about the T/C (endpoint: median survival time, dose: 75.0 micrograms/kg/injection, schedule: Q04DX003 (ip), vehicle: water) of the same molecule?
Its T/C is 122 % of control.

And the T/C (endpoint: median survival time, dose: 200.0 micrograms/kg/injection, schedule: Q01DX001 (ip), vehicle: water)?
The T/C was 118 % of control.

And the T/C (endpoint: median survival time, dose: 600.0 micrograms/kg/injection, schedule: Q04DX003 (ip), vehicle: water)?
The T/C was 150 % of control.

Which results are given for `CC1=C(C)Cc2c(-c3ccc(Cl)cc3)oc(-c3ccc(Cl)cc3)c2C1`?
T/C [1]: 100 % of control; T/C [2]: 97 % of control; T/C [3]: 94 % of control

Which results are given for `O=NN(CCF)C(=O)NC12CC3CC(CC(C3)C1)C2`?
T/C (endpoint: mean survival time, dose: 40.0 mg/kg/injection, schedule: Q01DX001 (ip), vehicle: carboxymethylcellulose (CMC)): 124 % of control; T/C (endpoint: mean survival time, dose: 60.0 mg/kg/injection, schedule: Q01DX001 (ip), vehicle: carboxymethylcellulose (CMC)): 190 % of control; T/C (endpoint: mean survival time, dose: 93.0 mg/kg/injection, schedule: Q01DX001 (ip), vehicle: carboxymethylcellulose (CMC)): 192 % of control; T/C (endpoint: mean survival time, dose: 187.0 mg/kg/injection, schedule: Q01DX001 (ip), vehicle: carboxymethylcellulose (CMC)): 259 % of control

Which T/C (endpoint: mean survival time, dose: 75.0 mg/kg/injection, schedule: Q01DX001 (ip), vehicle: saline) does the source give for `CCCC[n+]1ccc(C#N)cc1` here?
Its T/C is 103 % of control.

What about the T/C (endpoint: mean survival time, dose: 150.0 mg/kg/injection, schedule: Q01DX001 (ip), vehicle: saline) of the same molecule?
The T/C was 95 % of control.

What does the source list for `Cn1nc(N)c2ncc(-c3ccc(Cl)cc3)nc21`?
T/C (endpoint: mean survival time, dose: 100.0 mg/kg/injection, schedule: Q01DX009 (ip), vehicle: saline with Tween-80): 93 % of control; T/C (endpoint: mean survival time, dose: 200.0 mg/kg/injection, schedule: Q01DX009 (ip), vehicle: saline with Tween-80): 96 % of control; T/C (endpoint: mean survival time, dose: 400.0 mg/kg/injection, schedule: Q01DX009 (ip), vehicle: saline with Tween-80): 87 % of control

Which results are given for `O=C(c1ccccc1)C(C(O)CCl)C(O)(C(F)(F)F)C(F)(F)F` (centres undefined)?
T/C [4]: 89 % of control; T/C [5]: 93 % of control; T/C [6]: 91 % of control

What does the source list for `CC[C@H](CC[C@@H](C)[C@H]1CC[C@H]2[C@@H]3CC=C4C[C@@H](OC(=O)CN5CCNCC5)CC[C@]4(C)[C@H]3CC[C@]12C)C(C)C`?
T/C (endpoint: mean survival time, dose: 100.0 mg/kg/injection, schedule: Q01DX001 (ip), vehicle: water): 98 % of control; T/C (endpoint: mean survival time, dose: 100.0 mg/kg/injection, schedule: Q01DX009 (ip), vehicle: water): 105 % of control; T/C (endpoint: mean survival time, dose: 100.0 mg/kg/injection, schedule: Q04DX003 (ip), vehicle: water): 100 % of control; T/C (endpoint: mean survival time, dose: 200.0 mg/kg/injection, schedule: Q01DX001 (ip), vehicle: water): 98 % of control; T/C (endpoint: mean survival time, dose: 200.0 mg/kg/injection, schedule: Q01DX009 (ip), vehicle: water): 89 % of control; T/C (endpoint: mean survival time, dose: 200.0 mg/kg/injection, schedule: Q04DX003 (ip), vehicle: water): 100 % of control; T/C (endpoint: mean survival time, dose: 400.0 mg/kg/injection, schedule: Q01DX001 (ip), vehicle: water): 91 % of control; T/C (endpoint: mean survival time, dose: 400.0 mg/kg/injection, schedule: Q04DX003 (ip), vehicle: water): 98 % of control

With `O=Cc1cc2c(cc1[N+](=O)[O-])OCO2` as the molecule, how does the T/C [1] read?
Its T/C is 94 % of control.

What about the T/C [4] of the same molecule?
Its T/C is 101 % of control.

And the T/C [2]?
Its T/C is 96 % of control.

What about the T/C [5] of the same molecule?
The T/C was 97 % of control.

And the T/C [3]?
Its T/C is 92 % of control.

And the T/C [6]?
The T/C was 95 % of control.

`O=[N+]([O-])c1ccc(CBr)c(I)c1` was tested. Which T/C (endpoint: mean survival time, dose: 75.0 mg/kg/injection, schedule: Q01DX001 (ip), vehicle: other) did it give?
The T/C was 98 % of control.

And the T/C (endpoint: mean survival time, dose: 150.0 mg/kg/injection, schedule: Q01DX001 (ip), vehicle: other)?
The T/C was 102 % of control.

And the T/C (endpoint: mean survival time, dose: 300.0 mg/kg/injection, schedule: Q01DX001 (ip), vehicle: other)?
Its T/C is 94 % of control.

How did the T/C (endpoint: mean survival time, dose: 100.0 mg/kg/injection, schedule: Q04DX003 (ip), vehicle: other) turn out when `c1ccc(Nc2c3ccccc3nc3ccccc23)cc1` was run?
The T/C was 115 % of control.

With `O=C1c2ccccc2-c2cccc3cccc1c23` as the molecule, how does the T/C (endpoint: mean survival time, dose: 50.0 mg/kg/injection, schedule: Q01DX001 (ip), vehicle: saline sonified) read?
Its T/C is 94 % of control.

What about the T/C (endpoint: mean survival time, dose: 100.0 mg/kg/injection, schedule: Q01DX001 (ip), vehicle: saline sonified) of the same molecule?
Its T/C is 95 % of control.

And the T/C (endpoint: mean survival time, dose: 100.0 mg/kg/injection, schedule: Q01DX009 (ip), vehicle: gum acacia)?
Its T/C is 105 % of control.

What about the T/C (endpoint: mean survival time, dose: 200.0 mg/kg/injection, schedule: Q01DX001 (ip), vehicle: saline sonified) of the same molecule?
The T/C was 97 % of control.

And the T/C (endpoint: mean survival time, dose: 200.0 mg/kg/injection, schedule: Q01DX009 (ip), vehicle: gum acacia)?
Its T/C is 96 % of control.

What about the T/C (endpoint: mean survival time, dose: 400.0 mg/kg/injection, schedule: Q01DX009 (ip), vehicle: gum acacia) of the same molecule?
Its T/C is 102 % of control.

For `NC(N)=N/N=C\c1c[nH]c2ccccc12`, which T/C (endpoint: mean survival time, dose: 15.0 mg/kg/injection, schedule: Q01DX Z (ip), vehicle: carboxymethylcellulose (CMC)) is on record?
The T/C was 102 % of control.

What about the T/C (endpoint: mean survival time, dose: 30.0 mg/kg/injection, schedule: Q01DX Z (ip), vehicle: carboxymethylcellulose (CMC)) of the same molecule?
Its T/C is 103 % of control.

And the T/C (endpoint: mean survival time, dose: 30.0 mg/kg/injection, schedule: Q01DX Z (oral), vehicle: carboxymethylcellulose (CMC))?
Its T/C is 89 % of control.

And the T/C (endpoint: mean survival time, dose: 60.0 mg/kg/injection, schedule: Q01DX Z (ip), vehicle: carboxymethylcellulose (CMC))?
The T/C was 100 % of control.

And the T/C (endpoint: mean survival time, dose: 60.0 mg/kg/injection, schedule: Q01DX Z (oral), vehicle: carboxymethylcellulose (CMC))?
The T/C was 92 % of control.

And the T/C (endpoint: mean survival time, dose: 120.0 mg/kg/injection, schedule: Q01DX Z (oral), vehicle: carboxymethylcellulose (CMC))?
Its T/C is 96 % of control.

And the T/C (endpoint: mean survival time, dose: 240.0 mg/kg/injection, schedule: Q01DX Z (oral), vehicle: carboxymethylcellulose (CMC))?
Its T/C is 96 % of control.

With `COc1cc(NC(=O)CC(C)=O)cc2c(C)cc(=O)[nH]c12` as the molecule, how does the T/C (endpoint: mean survival time, dose: 100.0 mg/kg/injection, schedule: Q01DX001 (ip), vehicle: Klucel (hydroxypropylcellulose) (HPC)) read?
Its T/C is 104 % of control.

And the T/C [1]?
The T/C was 102 % of control.

And the T/C (endpoint: mean survival time, dose: 200.0 mg/kg/injection, schedule: Q01DX001 (ip), vehicle: Klucel (hydroxypropylcellulose) (HPC))?
Its T/C is 96 % of control.

What about the T/C [2] of the same molecule?
The T/C was 107 % of control.

And the T/C (endpoint: mean survival time, dose: 400.0 mg/kg/injection, schedule: Q01DX001 (ip), vehicle: Klucel (hydroxypropylcellulose) (HPC))?
The T/C was 102 % of control.

And the T/C [3]?
Its T/C is 102 % of control.
